Where “and” joins values, the source holds several entries; their conditions need not be identical. Identical values can stand only once. Where a SMILES comes first, the peptide text is derived from it. [ ]: non-standard residue; d: D form. Hyp = O=C(O)[C@@H]1C[C@@H](O)CN1
Tested on: MMP-9
Experiment: Example 9 Luminex, LPS hPBMCs: MMP-9
Type: cell-based, human
Method: Treatment Human PBMCs were pretreated with YY-101, YDE-011 and YDE-043 or reference compound; Xiidra® at various concentration (ranging from 1 nM to 100 uM) for 2 h before stimulation. An equal volume of 0.5% DMSO was used as a vehicle control. Then, the cells were treated with LPS at 5 ug/ml. The supernatants from treated cells were harvested at 24 h and placed in a 96 well for Luminex cytokine & chemokine profiling using a Luminex 200 multiplex assay (Luminex; R&D system, USA).
The main study arm with triplicate wells per group in a 24-well plate: • 1. Blank • 2. PBMC: 0.5% DMSO • 3. PBMC+LPS (5 ug/ml) • 4. PBMC+YY-101 100 uM • 5. PBMC+YY-101 10 uM • 6. PBMC+YY-101 1 uM • 7. PBMC+YY-101 0.1 uM • 8. PBMC+YY-101 0.01 uM • 9. PBMC+LPS (5 ug/ml)+Xiidra®100 uM • 10. PBMC+LPS (5 ug/ml)+Xiidra® 10 uM • 11. PBMC+LPS (5 ug/ml)+Xiidra® 1 uM • 12. PBMC+LPS (5 ug/ml)+Xiidra®0.1 uM • 13. PBMC+LPS (5 ug/ml)+Xiidra®0.01 uM • 14. PBMC+LPS (5 ug/ml)+Xiidra®0.001 uM • 15. PBMC+LPS (5 ug/ml)+YY-101 100 uM • 16. PBMC+LPS (5 ug/ml)+YY-101 10 uM • 17. PBMC+LPS (5 ug/ml)+YY-101 1 uM • 18. PBMC+LPS (5 ug/ml)+YY-101 0.1 uM • 19. PBMC+LPS (5 ug/ml)+YY-101 0.01 uM • 20. PBMC+LPS (5 ug/ml)+YY-101 0.001 uM • 21. PBMC+LPS (5 ug/ml)+YDE-011 100 uM • 22. PBMC+LPS (5 ug/ml)+YDE-011 10 uM • 23. PBMC+LPS (5 ug/ml)+YDE-011 1 uM • 24. PBMC+LPS (5 ug/ml)+YDE-011 0.1 uM • 25. PBMC+LPS (5 ug/ml)+YDE-011 0.01 uM • 26. PBMC+LPS (5 ug/ml)+YDE-011 0.001 uM • 27. PBMC+LPS (5 ug/ml)+YDE-043 100 uM • 28. PBMC+LPS (5 ug/ml)+YDE-043 10 uM • 29. PBMC+LPS (5 ug/ml)+YDE-043 1 uM • 30. PBMC+LPS (5 ug/ml)+YDE-043 0.1 uM • 31. PBMC+LPS (5 ug/ml)+YDE-043 0.01 uM • 32. PBMC+LPS (5 ug/ml)+YDE-043 0.001 uM
Multiplex assay was used to measure 30 cytokines and chemokines. The 1:2, 1:10 and 1:200 diluted cell supernatant and serial dilution of the standard were dispensed into a 96 well plate at 50 ul/well. Then, the pre-mixed cocktail of antibody-coated magnetic beads was dispensed at 50 ul/well and incubated at room temperature for 2 h in a horizontal orbital microplate shaker at 800±500 rpm. The beads were washed using a magnetic device to prevent loss. The biotin-antibody was dispensed in 50 ul of each well and incubated at room temperature for 1 h in a shaker at 800±500 rpm. After washing, streptavidin-PE was added at 50 ul/well and incubated at room temperature for 30 min in a shaker under the same conditions. Finally, after washing, wash buffer (100 ul/well) was added to the plate and incubated in a shaker for 2 min. The Luminex™ 200 setting were set according to the manufacturer's protocol. The data was calculated with a standard five-parameter logistic nonlinear regression analysis of the data (xPonent software 4.2, USA). The levels of cytokine/chemokine are normalized to the live cell counts (1×10^5 cells/mL) and presented as concentrations per mL (pg/mL or ng/mL).

[1] = PBMC + 0.01 uM, no LPS, single replicates
[2] = PBMC + 0.1 uM, no LPS, single replicates
[3] = PBMC + 1 uM, no LPS, single replicates
[4] = PBMC + 10 uM, no LPS, single replicates
[5] = PBMC + 100 uM, no LPS, single replicates
[6] = PBMC + LPS(5 ug/ml) + 0.001 uM, Mean
[7] = PBMC + LPS(5 ug/ml) + 0.001 uM, single replicates
[8] = PBMC + LPS(5 ug/ml) + 0.01 uM, Mean
[9] = PBMC + LPS(5 ug/ml) + 0.01 uM, single replicates
[10] = PBMC + LPS(5 ug/ml) + 0.1 uM, Mean
[11] = PBMC + LPS(5 ug/ml) + 0.1 uM, single replicates
[12] = PBMC + LPS(5 ug/ml) + 1 uM, Mean
[13] = PBMC + LPS(5 ug/ml) + 1 uM, single replicates
[14] = PBMC + LPS(5 ug/ml) + 10 uM, Mean
[15] = PBMC + LPS(5 ug/ml) + 10 uM, single replicates
[16] = PBMC + LPS(5 ug/ml) + 100 uM, Mean
[17] = PBMC + LPS(5 ug/ml) + 100 uM, single replicates

Q: With `CC(C)C[C@H](NC(=O)CNC(=O)[C@H](CC(=O)O)NC(=O)[C@H](CCC(N)=O)NC(=O)CNC(=O)[C@@H]1C[C@@H](O)CN1)C(=O)N[C@@H](C)C(=O)NCC(=O)N1CCC[C@H]1C(=O)N[C@@H](CCCCN)C(=O)O` [YY-101] (H-[Hyp]GQDGLAGPK-OH; N-terminus and C-terminus assumed) as the compound, how does the “MMP-9 Concentration” value (PBMC + 0.01 uM, no LPS, Mean) read?
A: 6947.7 pg/mL

Q: What about the MMP-9 conc/live cell (PBMC + 0.01 uM, no LPS, Mean) of the same compound?
A: 1395.6 pg/10^5

Q: And the “MMP-9 Concentration” value [1]?
A: 6464.0 pg/mL and 7431.3 pg/mL

Q: What about the MMP-9 conc/live cell [1] of the same compound?
A: 1243.1 pg/10^5 and 1548.2 pg/10^5

Q: What about the “MMP-9 Concentration” value (PBMC + 0.1 uM, no LPS, Mean) of the same compound?
A: 7041.0 pg/mL

Q: And the MMP-9 conc/live cell (PBMC + 0.1 uM, no LPS, Mean)?
A: 1365.4 pg/10^5

Q: And the “MMP-9 Concentration” value [2]?
A: 5521.9 pg/mL and 8560.2 pg/mL

Q: And the MMP-9 conc/live cell [2]?
A: 1255.0 pg/10^5 and 1475.9 pg/10^5

Q: And the “MMP-9 Concentration” value (PBMC + 1 uM, no LPS, Mean)?
A: 7016.7 pg/mL

Q: And the MMP-9 conc/live cell (PBMC + 1 uM, no LPS, Mean)?
A: 1275.8 pg/10^5

Q: What about the “MMP-9 Concentration” value [3] of the same compound?
A: 6666.8 pg/mL and 7366.6 pg/mL

Q: What about the MMP-9 conc/live cell [3] of the same compound?
A: 1212.2 pg/10^5 and 1339.4 pg/10^5

Q: What about the “MMP-9 Concentration” value (PBMC + 10 uM, no LPS, Mean) of the same compound?
A: 10460.4 pg/mL

Q: What about the MMP-9 conc/live cell (PBMC + 10 uM, no LPS, Mean) of the same compound?
A: 1662.8 pg/10^5

Q: And the “MMP-9 Concentration” value [4]?
A: 13551.9 pg/mL and 7369.0 pg/mL

Q: And the MMP-9 conc/live cell [4]?
A: 2117.5 pg/10^5 and 1208.0 pg/10^5

Q: What about the “MMP-9 Concentration” value (PBMC + 100 uM, no LPS, Mean) of the same compound?
A: 5317.6 pg/mL

Q: And the MMP-9 conc/live cell (PBMC + 100 uM, no LPS, Mean)?
A: 799.8 pg/10^5

Q: And the “MMP-9 Concentration” value [5]?
A: 6000.1 pg/mL and 4635.0 pg/mL

Q: And the MMP-9 conc/live cell [5]?
A: 937.5 pg/10^5 and 662.1 pg/10^5

Q: What about the “MMP-9 Concentration” value [6] of the same compound?
A: 182.3 pg/mL

Q: And the MMP-9 conc/live cell [6]?
A: 28.3 pg/10^5

Q: What about the “MMP-9 Concentration” value [7] of the same compound?
A: 152.0 pg/mL and 155.2 pg/mL and 239.8 pg/mL

Q: And the MMP-9 conc/live cell [7]?
A: 26.7 pg/10^5 and 21.9 pg/10^5 and 36.3 pg/10^5

Q: And the “MMP-9 Concentration” value [8]?
A: 150.9 pg/mL

Q: What about the MMP-9 conc/live cell [8] of the same compound?
A: 24.5 pg/10^5

Q: And the “MMP-9 Concentration” value [9]?
A: 161.5 pg/mL and 155.2 pg/mL and 135.8 pg/mL

Q: What about the MMP-9 conc/live cell [9] of the same compound?
A: 25.2 pg/10^5 and 25.9 pg/10^5 and 22.3 pg/10^5

Q: What about the “MMP-9 Concentration” value [10] of the same compound?
A: 114.6 pg/mL

Q: And the MMP-9 conc/live cell [10]?
A: 19.7 pg/10^5

Q: What about the “MMP-9 Concentration” value [11] of the same compound?
A: 102.0 pg/mL and 119.2 pg/mL and 122.6 pg/mL

Q: What about the MMP-9 conc/live cell [11] of the same compound?
A: 16.5 pg/10^5 and 22.9 pg/10^5 and 19.8 pg/10^5

Q: What about the “MMP-9 Concentration” value [12] of the same compound?
A: 167.7 pg/mL

Q: What about the MMP-9 conc/live cell [12] of the same compound?
A: 25.8 pg/10^5

Q: What about the “MMP-9 Concentration” value [13] of the same compound?
A: 155.2 pg/mL and 161.5 pg/mL and 186.3 pg/mL

Q: What about the MMP-9 conc/live cell [13] of the same compound?
A: 24.6 pg/10^5 and 22.8 pg/10^5 and 30.1 pg/10^5

Q: What about the “MMP-9 Concentration” value [14] of the same compound?
A: 157.2 pg/mL

Q: And the MMP-9 conc/live cell [14]?
A: 24.0 pg/10^5

Q: What about the “MMP-9 Concentration” value [15] of the same compound?
A: 161.5 pg/mL and 167.8 pg/mL and 142.4 pg/mL

Q: What about the MMP-9 conc/live cell [15] of the same compound?
A: 26.9 pg/10^5 and 26.2 pg/10^5 and 18.7 pg/10^5

Q: And the “MMP-9 Concentration” value [16]?
A: 96.1 pg/mL

Q: What about the MMP-9 conc/live cell [16] of the same compound?
A: 16.5 pg/10^5

Q: And the “MMP-9 Concentration” value [17]?
A: 98.5 pg/mL and 102.0 pg/mL and 87.7 pg/mL

Q: And the MMP-9 conc/live cell [17]?
A: 15.6 pg/10^5 and 16.5 pg/10^5 and 17.5 pg/10^5
